Non-standard residues stand in square brackets, D forms with d. Residues, ends and D or L forms follow the SMILES beside them.
How the values were obtained:
[1] = Dissociation constant was evaluated which is similar to Ki (inhibitory constant)
Rattus norvegicus = species: Rattus norvegicus; test: Effective Concentration for GH secretion from rat pituitary cell was determined; assay type: functional; settings: Pituitary gland cell

Kd [1] [nM]	EC50 (Rattus norvegicus) [nM]	Structure (SMILES)
0.161	[…]	CC(C)(N)C(=O)N[C@H](COCc1ccccc1)C(=O)N1CCC2(CC1)CN(S(C)(=O)=O)c1ccccc12 [IBUTAMOREN]
	> 5000	CC(C)(N)CC(=O)N[C@H]1CCc2ccccc2N(Cc2ccc(-c3ccccc3-c3nn[nH]n3)cc2)C1=O
	10	C[C@H](NC(=O)[C@@H](Cc1c[nH]c2ccccc12)NC(=O)[C@@H](N)Cc1c[nH]cn1)C(=O)N[C@@H](Cc1c[nH]c2ccccc12)C(=O)N[C@H](Cc1ccccc1)C(=O)N[C@@H](CCCCN)C(N)=O (H-H[dW]AW[dF]K-NH2)
